Columns and labels:
Type in all cases: functional
Details in all cases: time 16-20 hrs
Enterococcus faecium = assay: Antimicrobial activity against vancomycin-resistant Enterococcus faecium assessed as inhibition of microbial growth incubated for 16 to 20 hrs under ambient air condition by broth microdilution assay
Staphylococcus aureus [1] = assay: Antimicrobial activity against Staphylococcus aureus ATCC 25923 assessed as inhibition of microbial growth incubated for 16 to 20 hrs under ambient air condition by broth microdilution assay
Staphylococcus aureus [2] = assay: Antimicrobial activity against methicillin-resistant Staphylococcus aureus assessed as inhibition of microbial growth incubated for 16 to 20 hrs under ambient air condition by broth microdilution assay

Structure (SMILES) | MIC (Enterococcus faecium) [µg/mL] | MIC (Staphylococcus aureus [1]) [µg/mL] | MIC (Staphylococcus aureus [2]) [µg/mL]
C/C=C1\NC(=O)[C@H]([C@@H](C)O)NC(=O)c2csc(n2)-c2cc(O)c(-c3nc(C(=O)NC(CNc4ccccc4I)C(N)=O)cs3)nc2-c2csc(n2)[C@@H]2CSC(=O)c3[nH]c4cccc(c4c3C)COC(=O)[C@H](O)C[C@H](NC(=O)c3csc1n3)c1nc(cs1)C(=O)N2 (stereo partly drawn) | 0.015 | 0.062 | 0.0078
C/C=C1\NC(=O)[C@H]([C@@H](C)O)NC(=O)c2csc(n2)-c2cc(O)c(-c3nc(C(=O)NC(CNc4cccc(C(F)(F)F)c4)C(N)=O)cs3)nc2-c2csc(n2)[C@@H]2CSC(=O)c3[nH]c4cccc(c4c3C)COC(=O)[C@H](O)C[C@H](NC(=O)c3csc1n3)c1nc(cs1)C(=O)N2 (stereo partly drawn) | 0.031 | 0.062 | 0.0078
C/C=C1\NC(=O)[C@H]([C@@H](C)O)NC(=O)c2csc(n2)-c2cc(O)c(-c3nc(C(=O)NC(CNc4cccc(Br)c4)C(N)=O)cs3)nc2-c2csc(n2)[C@@H]2CSC(=O)c3[nH]c4cccc(c4c3C)COC(=O)[C@H](O)C[C@H](NC(=O)c3csc1n3)c1nc(cs1)C(=O)N2 (stereo partly drawn) | 0.031 | 0.062 | 0.0078
C/C=C1\NC(=O)[C@H]([C@@H](C)O)NC(=O)c2csc(n2)-c2cc(O)c(-c3nc(C(=O)NC(CNc4ccc(C(F)(F)F)cc4)C(N)=O)cs3)nc2-c2csc(n2)[C@@H]2CSC(=O)c3[nH]c4cccc(c4c3C)COC(=O)[C@H](O)C[C@H](NC(=O)c3csc1n3)c1nc(cs1)C(=O)N2 (stereo partly drawn) | 0.015 | 0.031 | < 0.0039
C/C=C1\NC(=O)[C@H]([C@@H](C)O)NC(=O)c2csc(n2)-c2cc(O)c(-c3nc(C(=O)NC(CNc4cccc(C)c4)C(N)=O)cs3)nc2-c2csc(n2)[C@@H]2CSC(=O)c3[nH]c4cccc(c4c3C)COC(=O)[C@H](O)C[C@H](NC(=O)c3csc1n3)c1nc(cs1)C(=O)N2 (stereo partly drawn) | 0.015 | 0.031 | < 0.0039
C/C=C1\NC(=O)[C@H]([C@@H](C)O)NC(=O)c2csc(n2)-c2cc(O)c(-c3nc(C(=O)NC(CNc4ccccc4C)C(N)=O)cs3)nc2-c2csc(n2)[C@@H]2CSC(=O)c3[nH]c4cccc(c4c3C)COC(=O)[C@H](O)C[C@H](NC(=O)c3csc1n3)c1nc(cs1)C(=O)N2 (stereo partly drawn) | 0.015 | 0.015 | < 0.0039
C/C=C1\NC(=O)[C@H]([C@@H](C)O)NC(=O)c2csc(n2)-c2cc(O)c(-c3nc(C(=O)NC(CNc4ccc(Br)cc4)C(N)=O)cs3)nc2-c2csc(n2)[C@@H]2CSC(=O)c3[nH]c4cccc(c4c3C)COC(=O)[C@H](O)C[C@H](NC(=O)c3csc1n3)c1nc(cs1)C(=O)N2 (stereo partly drawn) | 0.031 | 0.062 | 0.015
C/C=C1\NC(=O)[C@H]([C@@H](C)O)NC(=O)c2csc(n2)-c2cc(O)c(-c3nc(C(=O)NC(CNc4cccc(I)c4)C(N)=O)cs3)nc2-c2csc(n2)[C@@H]2CSC(=O)c3[nH]c4cccc(c4c3C)COC(=O)[C@H](O)C[C@H](NC(=O)c3csc1n3)c1nc(cs1)C(=O)N2 (stereo partly drawn) | 0.0078 | 0.031 | < 0.0039
C/C=C1\NC(=O)[C@H]([C@@H](C)O)NC(=O)c2csc(n2)-c2cc(O)c(-c3nc(C(=O)NC(CNc4ccc(F)cc4)C(N)=O)cs3)nc2-c2csc(n2)[C@@H]2CSC(=O)c3[nH]c4cccc(c4c3C)COC(=O)[C@H](O)C[C@H](NC(=O)c3csc1n3)c1nc(cs1)C(=O)N2 (stereo partly drawn) | 0.031 | 0.031 | 0.015
C/C=C1\NC(=O)[C@H]([C@@H](C)O)NC(=O)c2csc(n2)-c2cc(O)c(-c3nc(C(=O)NC(CNc4ccccc4Br)C(N)=O)cs3)nc2-c2csc(n2)[C@@H]2CSC(=O)c3[nH]c4cccc(c4c3C)COC(=O)[C@H](O)C[C@H](NC(=O)c3csc1n3)c1nc(cs1)C(=O)N2 (stereo partly drawn) | 0.015 | 0.015 | < 0.0039
C=C(NC(=O)c1csc(-c2nc3c(cc2O)-c2nc(cs2)C(=O)N[C@@H]([C@@H](C)O)C(=O)N/C(=C\C)c2nc(cs2)C(=O)N[C@H]2C[C@@H](O)C(=O)OCc4cccc5[nH]c(c(C)c45)C(=O)SC[C@H](NC(=O)c4csc2n4)c2nc-3cs2)n1)C(N)=O | 0.031 | 0.062 | 0.0078
C/C=C1\NC(=O)[C@H]([C@@H](C)O)NC(=O)c2csc(n2)-c2cc(O)c(-c3nc(C(=O)NC(CNc4ccccc4C(F)(F)F)C(N)=O)cs3)nc2-c2csc(n2)[C@@H]2CSC(=O)c3[nH]c4cccc(c4c3C)COC(=O)[C@H](O)C[C@H](NC(=O)c3csc1n3)c1nc(cs1)C(=O)N2 (stereo partly drawn) | 0.015 | 0.031 | < 0.0039
C/C=C1\NC(=O)[C@H]([C@@H](C)O)NC(=O)c2csc(n2)-c2cc(O)c(-c3nc(C(=O)NC(CNc4ccc(I)cc4)C(N)=O)cs3)nc2-c2csc(n2)[C@@H]2CSC(=O)c3[nH]c4cccc(c4c3C)COC(=O)[C@H](O)C[C@H](NC(=O)c3csc1n3)c1nc(cs1)C(=O)N2 (stereo partly drawn) | 0.015 | 0.062 | < 0.0039
C/C=C1\NC(=O)[C@H]([C@@H](C)O)NC(=O)c2csc(n2)-c2cc(O)c(-c3nc(C(=O)NC(CNc4ccccc4F)C(N)=O)cs3)nc2-c2csc(n2)[C@@H]2CSC(=O)c3[nH]c4cccc(c4c3C)COC(=O)[C@H](O)C[C@H](NC(=O)c3csc1n3)c1nc(cs1)C(=O)N2 (stereo partly drawn) | 0.015 | 0.062 | < 0.0039
C/C=C1\NC(=O)[C@H]([C@@H](C)O)NC(=O)c2csc(n2)-c2cc(O)c(-c3nc(C(=O)NC(CNc4ccc(C)cc4)C(N)=O)cs3)nc2-c2csc(n2)[C@@H]2CSC(=O)c3[nH]c4cccc(c4c3C)COC(=O)[C@H](O)C[C@H](NC(=O)c3csc1n3)c1nc(cs1)C(=O)N2 (stereo partly drawn) | 0.031 | 0.062 | 0.0078
C/C=C1\NC(=O)[C@H]([C@@H](C)O)NC(=O)c2csc(n2)-c2cc(O)c(-c3nc(C(=O)NC(CNc4cccc(F)c4)C(N)=O)cs3)nc2-c2csc(n2)[C@@H]2CSC(=O)c3[nH]c4cccc(c4c3C)COC(=O)[C@H](O)C[C@H](NC(=O)c3csc1n3)c1nc(cs1)C(=O)N2 (stereo partly drawn) | 0.031 | 0.031 | 0.015
